In patent US11767310B2, “Nicotinamide RIPK1 inhibitors” (AbbVie Inc., priority 2021, dated 2023):
Marks after values point to notes of the source that are not given here.

How the values were obtained:
RIPK1 = RIPK1 (Homo sapiens (Human), UniProt Q13546); assay: RIPK1 Binding Assay; conditions: displacement of fluorescent probe, TR-FRET
Procedure: Compounds were tested for their ability to displace a fluorescent probe from recombinant human RIPK1.
Recombinant human RIPK1 (1-375) was prepared as described in Harris et al., ACS Med. Chem. Letters (2013) 4:1238-1243 (Supplementary Information), with the following exceptions: (i) instead of using the gene sequence from NM_003804.3, the gene was synthesized with codon optimization for BEV expression system, and (ii) the gene was cloned into the vector pFastBac1, not pDEST8.
A fluorescent probe containing an Oregon green fluorophore was synthesized from a compound known to bind to RIPK1.
The assay was performed in a buffer containing 50 mM N-2-Hydroxyethylpiperazine-N′-2-ethanesulfonic acid (HEPES) (pH 7.5), 10 mM MgCl2, 1 mM ethylene diamine tetraacetic acid (EDTA), and 0.01% BRIJ-35 (Polyoxyethylene (23) lauryl ether). Test compounds were solvated in dimethyl sulfoxide (DMSO) at final concentrations 4-fold serially diluted from 100 to 0.000095 uM in technical duplicates into an empty 384 well plate. Recombinant RIPK1 (final concentration of 2.5 nM) was added to the wells and incubated with test compound for 1 hour at room temperature. A solution containing the fluorescent probe (final concentration 5 nM) and an LanthaScreen Tb-anti-GST antibody (Thermofisher Scientific; final concentration of 5 nM) was then added to each well, with the Tb-anti-GST antibody binding to the GST portion of the recombinant RIPK1 and providing the corresponding FRET pair to the fluorescent probe. The plate was incubated for 1 hour at room temperature and read on an Envision plate reader using a time resolved FRET protocol. Data was normalized and analyzed using Studies from Dotmatics.

U937 cells = assay: U937 TNF/zVAD Cytotoxicity Cell Assay; assay type: cell-based; conditions: Homo sapiens, U-937; TNFα 10 ng/mL + Z-VAD FMK 20 μM, 16-20 hours; read-out: U937 TNF/zVAD Induced Cytotoxicity IC50
Procedure: Compounds were tested for their ability to prevent TNF induced necroptosis in U937 cells. Treatment with TNF and the caspase inhibitor zVAD-FMK results in the activation and phosphorylation of RIPK1 and subsequent phosphorylation of RIPK3 and MLKL (Mixed Lineage Kinase Domain Like Pseudokinase), leading to induction of necroptotic cell death that is measured as a reduction in cell viability. Similar U937 assay protocols have been previously described; see, e.g., Harris et al., ACS Med. Chem. Letters (2013) 4:1238-1243 and Supplementary Information.
Test compounds were solvated in dimethyl sulfoxide (DMSO) and 3-fold serially diluted from 10 uM to 0.0005 uM with technical duplicates into an empty 384 well plate. U937 cells were resuspended at a concentration of 500,000 cells/mL in fresh RPMI (Roswell Park Memorial Institute) 1640 growth medium containing 10% heat inactivated fetal bovine serum (FB1S) and seeded into a 384 well plate containing compounds and incubated for 1 hour at 37° C. Following incubation, the cells were challenged with TNFα (final concentration of 10 ng/mL) and Z-VAD FMK (N-Benzyloxycarbonyl-Val-Ala-Asp(O-Me) fluoromethyl ketone; final concentration of 20 μM) for 16-20 hours at 37° C. Following the incubation with TNFα/Z-VAD, cells were lysed with Cell Titer-Glo and incubated for 5-10 minutes. The plate was then read on an Envision plate reader. Data was normalized and analyzed with Studies from Dotmatics.

[1] = Prodrug bioconversion in intestinal S9 cell fractions; assay type: in vitro ADME
Procedure: Phosphatase enzymes are […] expressed with unique tissue specific isoforms and are key catalysts in the conversion of phosphate-containing prodrugs. To determine if exemplary phosphate prodrug compounds of the invention are enzymatically converted to the parent molecule across relevant species, the prodrug compounds were incubated with intestinal S9 cell fractions obtained from mouse, rat, dog, monkey, and human.
[…] Incubations were conducted in the absence and presence of 1 mM sodium orthovanadate, a phosphatase inhibitor. Prodrug depletion and parent formation were monitored by LC-MS/MS and normalized to internal standard as the analyte peak area ratio.

RIPK1, sequence (Q13546 1-375): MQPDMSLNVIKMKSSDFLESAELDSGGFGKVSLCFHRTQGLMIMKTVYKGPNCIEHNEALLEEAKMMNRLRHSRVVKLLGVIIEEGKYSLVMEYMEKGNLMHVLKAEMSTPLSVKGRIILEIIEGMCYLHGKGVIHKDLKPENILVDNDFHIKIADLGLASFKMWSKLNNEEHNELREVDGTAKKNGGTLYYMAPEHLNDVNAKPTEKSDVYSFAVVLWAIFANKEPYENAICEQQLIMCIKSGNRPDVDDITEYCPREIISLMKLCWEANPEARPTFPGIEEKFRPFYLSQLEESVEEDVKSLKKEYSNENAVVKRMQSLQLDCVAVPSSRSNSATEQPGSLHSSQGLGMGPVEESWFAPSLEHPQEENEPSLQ

SMILES: CN(C[C@@H](O)Cc1ccccc1)C(=O)c1cncc(C#Cc2cnn(C(F)F)c2)c1 [Example 2, (S)-5-((1-(difluoromethyl)-1H-pyrazol-4-yl)ethynyl)-N-(2-hydroxy-3-phenylpropyl)-N-methylnicotinamide]
- IC50 (RIPK1): 4 nM
- IC50 (U937 cells): 11 nM

SMILES: CN(C[C@H](Cc1ccccc1)OP(=O)(O)O)C(=O)c1cncc(C#Cc2cnn(C(F)F)c2)c1 [Example 19, (S)-1-(5-((1-(difluoromethyl)-1H-pyrazol-4-yl)ethynyl)-N-methylnicotinamido)-3-phenylpropan-2-yl dihydrogen phosphate]
- Clint (prodrug disappearance) ([1]; Human, 0.01 mg/mL S9 protein, Table F): 1608.5 μL/min/mg intestinal S9 protein
- Clint (prodrug disappearance) ([1]; Human, 0.25 mg/mL S9 protein, Table F): 296 μL/min/mg intestinal S9 protein
- Clint (prodrug disappearance) ([1]; Human, 0.25 mg/mL, Experiment 1): 246 μL/min/mg intestinal S9 protein
- Clint (prodrug disappearance) ([1]; Human, 0.25 mg/mL, Experiment 2): 228 μL/min/mg intestinal S9 protein
- Clint (prodrug disappearance) ([1]; Human, 0.25 mg/mL, Experiment 3): 235 μL/min/mg intestinal S9 protein
- Clint (prodrug disappearance) ([1]; Human, 0.25 mg/mL, Mean of 3 experiments): 236.3 μL/min/mg intestinal S9 protein
- Clint (prodrug disappearance) ([1]; Mouse, 0.01 mg/mL S9 protein, Table F): 116.8 μL/min/mg intestinal S9 protein
- Clint (prodrug disappearance) ([1]; Mouse, 0.25 mg/mL S9 protein, Table F): 54.7 μL/min/mg intestinal S9 protein
- Clint (prodrug disappearance) ([1]; Mouse, 0.25 mg/mL, Experiment 1): 43.1 μL/min/mg intestinal S9 protein
- Clint (prodrug disappearance) ([1]; Mouse, 0.25 mg/mL, Experiment 2): 74.6 μL/min/mg intestinal S9 protein
- Clint (prodrug disappearance) ([1]; Mouse, 0.25 mg/mL, Experiment 3): 42.2 μL/min/mg intestinal S9 protein
- Clint (prodrug disappearance) ([1]; Mouse, 0.25 mg/mL, Mean of 3 experiments): 53.3 μL/min/mg intestinal S9 protein
- Clint (prodrug disappearance) ([1]; Rat, 0.01 mg/mL S9 protein, Table F): <137** μL/min/mg intestinal S9 protein
- Clint (prodrug disappearance) ([1]; Rat, 0.25 mg/mL S9 protein, Table F): 42.4 μL/min/mg intestinal S9 protein
- Clint (prodrug disappearance) ([1]; Rat, 0.25 mg/mL, Experiment 1): 25.6 μL/min/mg intestinal S9 protein
- Clint (prodrug disappearance) ([1]; Rat, 0.25 mg/mL, Experiment 2): 16.9 μL/min/mg intestinal S9 protein
- Clint (prodrug disappearance) ([1]; Rat, 0.25 mg/mL, Experiment 3): 50.6 μL/min/mg intestinal S9 protein
- Clint (prodrug disappearance) ([1]; Rat, 0.25 mg/mL, Mean of 3 experiments): 31 μL/min/mg intestinal S9 protein
